# Reference: US10780092B2, “Fused pyrazine derivatives useful as soluble guanylate cyclase stimulators” (Merck Sharp & Dohme Corp., priority 2016, dated 2020)
# Experiments:
# sGC α1/β1 heterodimer = sGC α1/β1 heterodimer (Homo sapiens (Human), UniProt Q02108+Q02153); assay: Cell-based sGC functional assay (CASA assay), cGMP by HTRF; settings: CHO-K1/sGC cells; for Emax: CHO-K1, cGMP production as percentage of maximum of compound A (set to 100%), read-out: % Activation; for EC50: inflection point of cGMP production, 4P fit, read-out: IP
# Method in brief: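 CHO-K1 cells stably expressing human sGC α1/β1, with 0.5 mM IBMX, pre-incubated ±1 μM DETA-NO 30 min at 25° C, then compound 1 hr at 37° C (2.5% DMSO). cGMP by HTRF; activation as % of reference activator maximum, 4P fit giving inflection point and maximum […].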
# [1] = target: human recombinant sGC enzyme (Homo sapiens (Human), UniProt Q02108+Q02153); assay: SEC competition binding assay with [3H] Compound B radioligand; settings: displacement of 1.6 nM [3H] Compound B, 24 h at 37° C.
# Method in brief: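 Recombinant human sGC incubated with 1.6 nM [3H] Compound B and test compounds for 24 h at 37° C. Buffer: 50 mM triethanolamine pH 7.4, 3 mM MgCl2, 0.025% BSA, 2 mM DTT, 300 μM DETA/NO, 400 μM GTP, 1% DMSO. Bound ligand separated by gel filtration and counted by scintillation; non-specific binding with 1 μM Compound B; Ki from one-site fit.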
# [2] = tested on: hypoxia-induced pulmonary hypertension in rat; assay: Acute efficacy in hypoxia-induced pulmonary hypertension in rat following intratracheal (IT) administration; format: in vivo; settings: decrease in SBP at dose giving decrease in PAP ≥15 mmHg
# Excerpt: Acute Efficacy in Hypoxia-Induced Pulmonary Hypertension in Rat Following Intratracheal (IT) Administration Charles River Sprague-Dawley (CD) male rats weighing approximately 350 g were implanted with HD-S21 dual pressure telemetry transmitters (Data Sciences International (DSI)) into the pulmonary artery and femoral artery. This transmitter enables simultaneous measurement of both pulmonary and systemic hemodynamic parameters in the same animal. After a 7-10 day post-operative recovery period, animals were subjected to a normobaric hypoxic (10% oxygen) environment using a Higher Peak Mountain Air Generator (MAG-10) connected to a modified rodent cage via a fitted inlet port. Oxygen (at 10%), temperature, humidity, and CO2 were controlled within normal range and animals were maintained on a 12 hour light-dark cycle with ad libitum access to food and water. After two weeks exposure to 10% O2 hypoxic environment, systolic pulmonary arterial pressure readings increased from ˜25 mmHg to greater than 50 mmHg. Using a 48 hour baseline average, animals with readings between 50-110 mmHg (standard deviation of less than 10 mmHg) and minimal changes in systolic systemic blood pressure were enrolled for study. Animals were utilized for up to 2 studies per week for 4 weeks with a minimum of 2 days washout between doses of test agent. Compound or vehicle was administered intra-tracheally under light isoflurane anesthesia (5% in oxygen; flow rate 2.0 L/min for 3 minutes). Once anesthetized, rats were placed on an angled intubation stand in supine position and the trachea visualized using a small laryngoscope. Animals then received either 0.5 mL/kg of vehicle or 0.5 mL/kg vehicle containing compound intra-tracheally delivered via microsprayer by use of a Penn-Century Microsprayer® needle 3″ (Model IA-1B-GP) attached to a 1 mL high pressure syringe (Penn Century-Model B—SYR-PL1000) (Penn-Century, Philadelphia, Pa.). The Microsprayer® tip was inserted into the trachea up to the point at which the bend in the needle is close to the tip of the snout, which positions the tip of the Microsprayer® in front of the carina (bifurcation of trachea at the bronchi). After dose delivery the animal is placed on its back in the home cage for recovery. Hemodynamic measurements were continuously recorded and readings consolidated to hourly moving averages. Each animal received a vehicle on Day 1 followed by vehicle or test agent on Day 2. Change from vehicle baseline was calculated by subtracting the hourly Day 1 vehicle response from the hourly Day 2 response and treatment group data was expressed as mean±SEM. Decreases of systolic blood pressure (SBP) and systolic pulmonary arterial pressure (PAP) were measured at a particular IT dose (mpk milligrams per kilogram) for the following Example compounds. Compounds in the Table 13 achieved a minimum decrease in PAP of ≥15 mmHg for the corresponding decrease in SBP listed.
Compound,Emax (sGC α1/β1 heterodimer) [%],EC50 (sGC α1/β1 heterodimer) [nM],Ki [1] [nM],Category (decrease in SBP) ([2]; IT dose 0.03 mpk),Category (decrease in SBP) ([2]; IT dose 0.01 mpk),Category (decrease in SBP) ([2]; IT dose 0.3 mpk)
"CC1(c2cc(O)c(C#N)c(F)c2)C(=O)Nc2nc(-c3cn4ccnc4c(CC4CCCCC4)n3)nc(N)c21 (stereo not drawn) [Example 18-B, 4-(4-Amino-2-(8-(cyclohexylmethyl)imidazo[1,2-a]pyrazin-6-yl)-5-methyl-6-oxo-6,7-dihydro-5H-pyrrolo[2,3-d]pyrimidin-5-yl)-2-fluoro-6-hydroxybenzonitrile]",88,950,0.168,B (decrease in SBP 5-10 mmHg),,
"CC1(c2ccc(F)c(O)c2)C(=O)Nc2nc(-c3cn4ccnc4c(Cc4ccccc4F)n3)nc(N)c21 (stereo not drawn) [Example 13-B, 4-Amino-5-(4-fluoro-3-hydroxyphenyl)-2-{8-[(2-fluorophenyl)methyl]imidazo[1,2-a]pyrazin-6-yl}-5-methyl-5,7-dihydro-6H-pyrrolo[2,3-d]pyrimidin-6-one]",100,821,0.154,,A (decrease in SBP 0-5 mmHg),
"CC1(c2cc(O)c(Cl)c(F)c2)C(=O)Nc2nc(-c3cn4ccnc4c(Cc4ccccc4F)n3)nc(N)c21 (stereo not drawn) [Example 2-B, 4-Amino-5-(4-chloro-3-fluoro-5-hydroxyphenyl)-2-{8-[(2-fluorophenyl)methyl]imidazo[1,2-a]pyrazin-6-yl}-5-methyl-5,7-dihydro-6H-pyrrolo[2,3-d]pyrimidin-6-one]",89,1620,0.095,,A (decrease in SBP 0-5 mmHg),
"CC1(c2cc(O)c(Cl)cn2)C(=O)Nc2nc(-c3cn4ccnc4c(Cc4cc(F)ccc4F)n3)nc(N)c21 (stereo not drawn) [Example 94-B, 4-Amino-5-(5-chloro-4-hydroxypyridin-2-yl)-2-{8-[(2,5-difluorophenyl)methyl]imidazo[1,2-a]pyrazin-6-yl}-5-methyl-5,7-dihydro-6H-pyrrolo[2,3-d]pyrimidin-6-one]",125,1260,0.149,B (decrease in SBP 5-10 mmHg),,
"CC1(c2cc(O)c(C(F)(F)F)c(F)c2)C(=O)Nc2nc(-c3cn4ccnc4c(CC4CCCCC4)n3)nc(N)c21 (stereo not drawn) [Example 97-B, 4-Amino-2-(8-(cyclohexylmethyl)imidazo[1,2-a]pyrazin-6-yl)-5-(3-fluoro-5-hydroxy-4-(trifluoromethyl)phenyl)-5-methyl-5,7-dihydro-6H-pyrrolo[2,3-d]pyrimidin-6-one]",138,1080,0.587,A (decrease in SBP 0-5 mmHg),,
"CC1(c2cc(O)c(C#N)c(F)c2)C(=O)Nc2nc(-c3cn4ccnc4c(Cc4ccccc4F)n3)nc(N)c21 (stereo not drawn) [Example 23-B, 4-(4-Amino-2-{8-[(2-fluorophenyl)methyl]imidazo[1,2-a]pyrazin-6-yl}-5-methyl-6-oxo-6,7-dihydro-5H-pyrrolo[2,3-d]pyrimidin-5-yl)-2-fluoro-6-hydroxybenzonitrile]",76,3110,0.216,A (decrease in SBP 0-5 mmHg),,
"CC1(c2cc(O)c(Cl)cn2)C(=O)Nc2nc(-c3cn4ccnc4c(Cc4ccccc4F)n3)nc(N)c21 (stereo not drawn) [Example 4-B, 4-Amino-5-(5-chloro-4-hydroxypyridin-2-yl)-2-{8-[(2-fluorophenyl)methyl]imidazo[1,2-a]pyrazin-6-yl}-5-methyl-5,7-dihydro-6H-pyrrolo[2,3-d]pyrimidin-6-one]",136,1920,0.259,A (decrease in SBP 0-5 mmHg),,
"CC1(c2cc(O)c(Cl)cn2)C(=O)Nc2nc(-c3cn4ccnc4c(Cc4cccc(F)c4)n3)nc(N)c21 (stereo not drawn) [Example 51-B, 4-Amino-5-(5-chloro-4-hydroxypyridin-2-yl)-2-{8-[(3-fluorophenyl)methyl]imidazo[1,2-a]pyrazin-6-yl}-5-methyl-5,7-dihydro-6H-pyrrolo[2,3-d]pyrimidin-6-one]",88,1020,0.874,A (decrease in SBP 0-5 mmHg),,

# Molecules with a lower EC50 (sGC α1/β1 heterodimer), results first:
Emax (sGC α1/β1 heterodimer) [%],EC50 (sGC α1/β1 heterodimer) [nM],Ki [1] [nM],Compound,Category (decrease in SBP) ([2]; IT dose 0.03 mpk),Category (decrease in SBP) ([2]; IT dose 0.01 mpk),Category (decrease in SBP) ([2]; IT dose 0.3 mpk)
92,720,0.41,"CC1(c2cc(O)c(C#N)c(F)c2)C(=O)Nc2nc(-c3cn4ccnc4c(Cc4cc(F)cc(F)c4)n3)nc(N)c21 (stereo not drawn) [Example 38-B, 4-(4-Amino-2-{8-[(3,5-difluorophenyl)methyl]imidazo[1,2-a]pyrazin-6-yl}-5-methyl-6-oxo-6,7-dihydro-5H-pyrrolo[2,3-d]pyrimidin-5-yl)-2-fluoro-6-hydroxybenzonitrile]",A (decrease in SBP 0-5 mmHg),,
137,503,0.135,"CC1(c2cccc(O)c2)C(=O)Nc2nc(-c3cn4ccnc4c(Cc4cc(F)ccc4F)n3)nc(N)c21 (stereo not drawn) [Example 11-B, 4-Amino-2-{8-[(2,5-difluorophenyl)methyl]imidazo[1,2-a]pyrazin-6-yl}-5-(3-hydroxyphenyl)-5-methyl-5,7-dihydro-6H-pyrrolo[2,3-d]pyrimidin-6-one]",,B (decrease in SBP 5-10 mmHg),
95,279,2.5,"CC1(c2ccc(Cl)c(O)c2)C(=O)Nc2nc(-c3cn4ncnc4c(CCC(F)(F)C(F)(F)F)n3)nc(N)c21 (stereo not drawn) [Example 88-A, 4-Amino-5-(4-chloro-3-hydroxyphenyl)-5-methyl-2-(8-(3,3,4,4,4-pentafluorobutyl)-[1,2,4]triazolo[1,5-a]pyrazin-6-yl)-5,7-dihydro-6H-pyrrolo[2,3-d]pyrimidin-6-one]",A (decrease in SBP 0-5 mmHg),,
117,223,0.252,"CC(C)CCc1nc(-c2nc(N)c3c(n2)NC(=O)C3(C)c2ccc(Cl)c(O)c2)cn2ccnc12 (stereo not drawn) [Example 25-A, 4-Amino-5-(4-chloro-3-hydroxyphenyl)-2-(8-isopentylimidazo[1,2-a]pyrazin-6-yl)-5-methyl-5,7-dihydro-6H-pyrrolo[2,3-d]pyrimidin-6-one]",B (decrease in SBP 5-10 mmHg),,
97,221,0.634,"CC1(c2cc(O)ccn2)C(=O)Nc2nc(-c3cn4ncnc4c(CC4CCCCC4)n3)nc(N)c21 (stereo not drawn) [Example 109-A, 4-Amino-2-(8-(cyclo-hexylmethyl)-[1,2,4]-triazolo[1,5-a]pyrazin-6-yl)-5-(4-hydroxy-pyridin-2-yl)-5-methyl-5,7-dihydro-6H-pyrrolo-[2,3-d]pyrimidin-6-one]",C (decrease in SBP >10 mmHg),,
135,198,0.221,"Cc1ccc(C2(C)C(=O)Nc3nc(-c4cn5ccnc5c(Cc5cccc(F)c5)n4)nc(N)c32)cc1O (stereo not drawn) [Example 107-B, 4-Amino-2-{8-[(3-fluorophenyl)methyl]imidazo[1,2-a]pyrazin-6-yl}-5-(3-hydroxy-4-methylphenyl)-5-methyl-5,7-dihydro-6H-pyrrolo[2,3-d]pyrimidin-6-one]",,A (decrease in SBP 0-5 mmHg),
79,63,5.03,"CC1(c2ccc(F)c(O)c2)C(=O)Nc2nc(-c3cn4ccnc4c(CCC(F)(F)C(F)(F)F)n3)nc(N)c21 (racemic) [Example 115-B, 4-Amino-5-(4-fluoro-3-hydroxyphenyl)-5-methyl-2-(8-(3,3,4,4,4-pentafluorobutyl)-imidazo[1,2-a]pyrazin-6-yl)-5,7-dihydro-6H-pyrrolo[2,3-d]pyrimidin-6-one]",,,C (decrease in SBP >10 mmHg)
